Measured values taken from PMC11879040, “Advancing systemic toxicity risk assessment: Evaluation of a NAM-based toolbox approach” (Toxicological Sciences, 2024).
Where two headings read alike, the source gives them in different places. Blank lines part the entries; values can stand above or below the compound they belong to.

Legend:
[1] = molecular target: Voltage-dependent L-type Ca2+ channel (dihydropyridine site), CACNA1C (r) (Rattus norvegicus, UniProt P22002); assay type: binding
[2] = system: Potassium Voltage-Gated Channel Kv non-selective, KCNQ1 (r); assay: IPP KCNQ1 binding (antagonist radioligand); set-up: species or system rat; conditions: IPP screening at 100 uM; control α-dendrotoxin
[3] = system: Gamma-aminobutyric acid receptor subunit alpha-1 BZD site, GABRA1A (r); assay type: binding, rat; conditions: IPP screening at 100 uM; control diazepam
[4] = system: Sodium channel protein type 5 subunit alpha (site 2), SCN5A (r); assay type: binding, rat
[5] = molecular target: T1, Adenosine receptor A2a, ADORA2A (h) (Homo sapiens, UniProt P29274); assay: IPP ADORA2A binding (agonist radioligand); conditions: IPP screening at 100 uM; control NECA
T1 construct: purchased Eurofins Cerep (SafetyScreen44-based IPP panel)

[6] = system: Thyroid hormone receptor alpha, THRA (h); assay: IPP THRA coactivator recruitment (agonist); assay type: biochemical, human; conditions: 100 uM; agonist; T3; * denotes assay interference (2-Amino-6-chloro-4-nitrophenol, HC Red 3)
Tubulin (r) = assay: IPP Tubulin binding; set-up: species or system rat; conditions: 100 uM; ligand/control Colchicine
HepG2 cells = assay: High-throughput transcriptomics (HTTr, TempO-Seq), HepG2, 24 h; assay type: cell-based, human; conditions: BIFROST gene level PoD
Procedure: HepG2, HepaRG, and MCF7 cells were treated with each compound for 24 h across a dose range of 7 concentrations and lysed using TempO-Seq lysis buffer (BioSpyder Technologies, proprietary kit, see [Middleton et al. 2022] for method details). Sequencing was performed using TempO-Seq (BioClavis) version 2 of the human whole transcriptome panel and analyzed as described previously in Middleton et al.

[7] = cited from earlier work
[8] = cited from earlier work; remark: listed apart in the source
[9] = molecular target: Dopamine receptor D2, DRD2 (h) (Homo sapiens, UniProt P14416); assay: biochemical
[10] = Assignment of risk classifications to benchmark chemical-exposure scenarios; conditions: from table S1
[11] = PBK input, levels L2/L3; ref [5]; cited from earlier work
[12] = unbound fraction in plasma (fup); conditions: PBK input, levels L2/L3; median of [2] internal data (unpublished) and [10]
[13] = IV 10 mg infusion (8.9 mg), 6 healthy, calibration, ref Ross-Lee et al. 1981
[14] = IV 20 mg infusion (15.4 mg base), 8 healthy, validation, ref Magueur et al. 1991
[15] = Oral 10 mg tablet (8.9 mg), fasted, 6 healthy, calibration, ref Ross-Lee et al. 1981
[16] = Oral 10 mg tablet (8.9 mg), fasted, 8 healthy male, validation, ref Bateman et al. 1980
[17] = Oral 20 mg tablet (17 mg base), fasted, 8 healthy, validation, ref Magueur et al. 1991
[18] = Oral 20 mg tablet (17.8 mg), fasted, 8 healthy male, validation, ref Bateman et al. 1980

T1 sequence (P29274 whole entry): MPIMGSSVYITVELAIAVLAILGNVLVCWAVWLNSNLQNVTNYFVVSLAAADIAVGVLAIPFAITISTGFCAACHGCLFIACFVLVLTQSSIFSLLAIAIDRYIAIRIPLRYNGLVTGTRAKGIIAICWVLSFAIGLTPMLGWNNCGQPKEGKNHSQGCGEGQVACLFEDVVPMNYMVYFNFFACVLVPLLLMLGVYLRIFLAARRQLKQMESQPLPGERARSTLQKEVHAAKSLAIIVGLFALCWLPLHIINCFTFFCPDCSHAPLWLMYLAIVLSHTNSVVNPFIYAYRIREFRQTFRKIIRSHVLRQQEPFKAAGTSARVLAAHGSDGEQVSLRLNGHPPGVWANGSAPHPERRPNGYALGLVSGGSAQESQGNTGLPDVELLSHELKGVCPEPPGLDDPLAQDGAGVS
Dopamine receptor D2, DRD2 (h), sequence (P14416 whole entry): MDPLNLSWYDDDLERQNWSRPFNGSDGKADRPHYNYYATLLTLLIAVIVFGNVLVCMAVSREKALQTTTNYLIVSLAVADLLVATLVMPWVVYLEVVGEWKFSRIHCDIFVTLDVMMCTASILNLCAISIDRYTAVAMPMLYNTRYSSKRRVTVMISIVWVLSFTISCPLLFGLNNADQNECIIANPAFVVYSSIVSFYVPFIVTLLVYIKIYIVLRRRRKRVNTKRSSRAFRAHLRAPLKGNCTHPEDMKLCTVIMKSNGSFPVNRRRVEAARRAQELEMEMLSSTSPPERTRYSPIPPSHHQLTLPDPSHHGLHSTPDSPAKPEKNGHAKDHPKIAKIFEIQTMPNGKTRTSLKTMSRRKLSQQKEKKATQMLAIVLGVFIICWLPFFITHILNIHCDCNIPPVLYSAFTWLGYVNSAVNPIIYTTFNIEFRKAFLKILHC
Voltage-dependent L-type Ca2+ channel (dihydropyridine site), CACNA1C (r), sequence (P22002 whole entry): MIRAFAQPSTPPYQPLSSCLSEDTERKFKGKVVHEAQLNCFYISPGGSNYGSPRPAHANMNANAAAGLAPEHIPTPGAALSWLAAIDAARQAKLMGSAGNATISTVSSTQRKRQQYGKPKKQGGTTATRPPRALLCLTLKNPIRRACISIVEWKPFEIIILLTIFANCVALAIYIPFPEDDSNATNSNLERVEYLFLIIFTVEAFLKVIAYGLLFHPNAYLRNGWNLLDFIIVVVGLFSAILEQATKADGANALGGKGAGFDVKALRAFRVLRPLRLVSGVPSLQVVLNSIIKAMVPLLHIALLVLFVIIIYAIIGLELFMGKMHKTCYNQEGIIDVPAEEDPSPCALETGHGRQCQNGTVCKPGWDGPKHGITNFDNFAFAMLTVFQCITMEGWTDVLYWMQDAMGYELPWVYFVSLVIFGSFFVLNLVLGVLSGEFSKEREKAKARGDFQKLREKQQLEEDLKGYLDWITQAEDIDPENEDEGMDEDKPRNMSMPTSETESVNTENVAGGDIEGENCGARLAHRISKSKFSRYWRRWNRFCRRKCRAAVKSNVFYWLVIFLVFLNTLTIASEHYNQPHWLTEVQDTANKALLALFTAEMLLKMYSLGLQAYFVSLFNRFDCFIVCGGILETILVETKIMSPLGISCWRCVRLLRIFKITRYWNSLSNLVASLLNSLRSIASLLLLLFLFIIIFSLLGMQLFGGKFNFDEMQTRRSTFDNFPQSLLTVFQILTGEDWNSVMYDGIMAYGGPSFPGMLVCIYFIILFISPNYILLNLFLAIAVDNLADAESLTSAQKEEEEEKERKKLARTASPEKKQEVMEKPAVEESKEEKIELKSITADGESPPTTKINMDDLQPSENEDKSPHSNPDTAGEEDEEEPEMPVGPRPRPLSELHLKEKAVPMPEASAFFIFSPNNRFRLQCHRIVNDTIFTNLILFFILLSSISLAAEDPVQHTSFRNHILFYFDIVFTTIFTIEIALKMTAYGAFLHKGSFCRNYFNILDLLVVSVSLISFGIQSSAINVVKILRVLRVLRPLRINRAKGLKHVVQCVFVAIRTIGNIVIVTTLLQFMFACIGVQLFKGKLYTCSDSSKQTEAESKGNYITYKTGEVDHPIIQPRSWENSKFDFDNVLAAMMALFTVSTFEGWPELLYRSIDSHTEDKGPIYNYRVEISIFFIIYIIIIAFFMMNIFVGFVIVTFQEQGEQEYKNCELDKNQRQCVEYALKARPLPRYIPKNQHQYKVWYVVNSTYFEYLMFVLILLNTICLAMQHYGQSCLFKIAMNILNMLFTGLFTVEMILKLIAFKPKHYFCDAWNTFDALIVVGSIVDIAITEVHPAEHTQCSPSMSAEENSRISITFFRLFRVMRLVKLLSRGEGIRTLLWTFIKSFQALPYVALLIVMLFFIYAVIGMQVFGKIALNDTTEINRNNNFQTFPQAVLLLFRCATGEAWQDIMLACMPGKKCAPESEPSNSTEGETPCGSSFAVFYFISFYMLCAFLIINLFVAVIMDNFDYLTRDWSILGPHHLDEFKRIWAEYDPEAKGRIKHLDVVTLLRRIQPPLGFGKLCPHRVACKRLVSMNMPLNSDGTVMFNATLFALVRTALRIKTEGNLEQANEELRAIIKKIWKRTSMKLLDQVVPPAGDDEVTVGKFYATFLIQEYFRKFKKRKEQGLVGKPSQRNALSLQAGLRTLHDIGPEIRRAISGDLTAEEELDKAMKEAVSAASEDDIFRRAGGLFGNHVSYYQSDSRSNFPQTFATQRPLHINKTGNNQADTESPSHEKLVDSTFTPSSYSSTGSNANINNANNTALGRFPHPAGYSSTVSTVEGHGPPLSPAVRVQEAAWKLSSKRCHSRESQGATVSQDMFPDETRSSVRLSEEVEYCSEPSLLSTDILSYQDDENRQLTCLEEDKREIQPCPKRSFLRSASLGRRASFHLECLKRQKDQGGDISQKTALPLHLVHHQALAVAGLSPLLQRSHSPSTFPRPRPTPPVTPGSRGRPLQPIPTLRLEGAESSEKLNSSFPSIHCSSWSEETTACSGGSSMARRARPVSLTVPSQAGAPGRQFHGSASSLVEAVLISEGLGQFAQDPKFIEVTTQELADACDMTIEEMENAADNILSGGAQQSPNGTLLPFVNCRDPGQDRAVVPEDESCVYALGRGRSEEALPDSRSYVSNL

SMILES: CCN(CC)CCNC(=O)c1cc(Cl)c(N)cc1OC [Metoclopramide, 4-Amino-5-chloro-N-[2-(diethylamino)ethyl]-2-methoxybenzamide]
Specific binding [1]: -18.6%
Specific binding [2]: -1.0%
Specific binding [3]: 29.4%
Specific binding [4]: 40.1%
Specific binding [5]: 6.5%
IPP screening %, Coactivator recruitment [6]: 1.0%
IPP screening %, Specific binding (Tubulin (r)): 0.0%
next lowest PoD, HepG2 HTTr (HepG2 cells): 16 µM
Reported AUC0-t [7, 13]: 325.9 ng·h/mL
Reported cmax [7, 13]: 129.1 ng/mL
Reported tmax [7, 13]: 4.56 min
Reported AUC0-t [7, 14]: 968.3 ng·h/mL
Reported cmax [7, 14]: 201.3 ng/mL
Reported tmax [7, 14]: 2.52 min
Reported AUC0-t [7, 15]: 247.7 ng·h/mL
Reported cmax [7, 15]: 51.06 ng/mL
Reported tmax [7, 15]: 44.8 min
Reported AUC0-t [7, 16]: 142.87 ng·h/mL
Reported cmax [7, 16]: 39.948 ng/mL
Reported tmax [7, 16]: 46.6 min
Reported AUC0-t [7, 17]: 604 ng·h/mL
Reported cmax [7, 17]: 55.85 ng/mL
Reported tmax [7, 17]: 121 min
Reported AUC0-t [7, 18]: 359.8 ng·h/mL
Reported cmax [7, 18]: 75.62 ng/mL
Reported tmax [7, 18]: 62.22 min
Intrinsic Liver Clearance ([8]; PBK level L2, taken or scaled from references (median where several), ref [6],[7],[10],[19]): 33.81 L/h
Intrinsic Liver Clearance ([8]; PBK level L3, scaled from references (median where several), ref [7],[10],[19]): 33.81 L/h
IC50 [9]: 46 nM
risk ([10]; IV, High therapeutic, 30 mg/day, Exp3): 1
risk ([10]; Oral, High therapeutic, 30 mg/day, Tablet, Exp2): 1
risk ([10]; Oral, Low therapeutic, 10 mg/day, Tablet, Exp1): 1

Fup [12]: 68.88%
SMILES: CN(C)[C@@H]1C(O)=C(C(N)=O)C(=O)[C@@]2(O)C(O)=C3C(=O)c4c(O)cccc4[C@@](C)(O)[C@H]3[C@H](O)[C@@H]12 [Oxytetracycline]
logP/D [11]: -1.307
